A short description of the experiment: Cytotoxicity against mouse LMM3 cells. It counts as functional, cell-based.

The structures appear in SMILES notation.

As a reminder, the IC50 is the midpoint of a concentration-inhibition curve. For the compound `Nc1nccc(-c2c[nH]c3ccc(Br)cc23)n1` [MERIDIANIN C], the IC50 worked out at 9.3 µM.

As for `Nc1nccc(-c2c[nH]c3cc(Br)cc(O)c23)n1` [MERIDIANIN B], the IC50 came to 11.4 µM.
